Test results published in paper PMC6691788, “Design and synthesis of phthalazine-based compounds as potent anticancer agents with potential antiangiogenic activity via VEGFR-2 inhibition” (Journal of Enzyme Inhibition and Medicinal Chemistry, 2019).

Tests used:
[1] = tested on: SF-268; assay: NCI 60 cell panel SRB screen; format: cell-based; settings: Homo sapiens; for GI50 / IC (TGI) / CC50: SF-268, 5 log dose; for CC50: 48 h, read-out: LC50 (the source's name); for activity at 10 µM: SF-268, single dose 10 μM, read-out: percent cell growth promotion
[2] = tested on: DU-145; assay: NCI 60 cell panel SRB screen; format: cell-based; settings: Homo sapiens; for GI50 / IC (TGI) / CC50: DU-145, 5 log dose; for CC50: 48 h, read-out: LC50 (the source's name); for activity at 10 µM: DU-145, single dose 10 μM, read-out: percent cell growth promotion
[3] = tested on: NCI-H322M; assay: NCI 60 cell panel SRB screen; format: cell-based; settings: Homo sapiens; for GI50 / IC (TGI) / CC50: 5 log dose; for CC50: 48 h, read-out: LC50 (the source's name); for activity at 10 µM: single dose 10 μM, read-out: percent cell growth promotion
[4] = tested on: MCF7; assay: NCI 60 cell panel SRB screen; format: cell-based; settings: Homo sapiens; for GI50: MCF7; for IC (TGI): MCF7, read-out: TGI; for activity at 10 µM: MCF7, read-out: percent cell growth promotion; for CC50: MCF7, 5 log dose, 48 h, read-out: LC50 (the source's name)
[5] = tested on: full NCI 60 cell panel; assay: NCI 60 cell panel SRB screen, whole panel; format: cell-based, human; settings: Homo sapiens, 60 cell, NCI 5-log dose, full 60 cell panel; read-out: GI50 values, range over the tested cell lines
[6] = tested on: HOP-92; assay: NCI 60 cell panel SRB screen; format: cell-based; settings: Homo sapiens; for GI50 / IC (TGI) / CC50: HOP-92, 5 log dose; for CC50: 48 h, read-out: LC50 (the source's name); for activity at 10 µM: HOP-92, single dose 10 μM, read-out: percent cell growth promotion
[7] = tested on: COLO 205; assay: NCI 60 cell panel SRB screen; format: cell-based; settings: Homo sapiens; for GI50 / IC (TGI) / CC50: COLO 205, 5 log dose; for CC50: 48 h, read-out: LC50 (the source's name); for activity at 10 µM: COLO 205, single dose 10 μM, read-out: percent cell growth promotion
[8] = tested on: SK-MEL-2; assay: NCI 60 cell panel SRB screen; format: cell-based; settings: Homo sapiens; for IC (TGI): read-out: TGI; for CC50: SK-MEL-2, 5 log dose, 48 h, read-out: LC50 (the source's name)
[9] = tested on: A498; assay: NCI 60 cell panel SRB screen; format: cell-based; settings: Homo sapiens; for GI50 / IC (TGI) / CC50: A498, 5 log dose; for CC50: 48 h, read-out: LC50 (the source's name); for activity at 10 µM: A498, single dose 10 μM, read-out: percent cell growth promotion
[10] = tested on: LOX IMVI; assay: NCI 60 cell panel SRB screen; format: cell-based; settings: Homo sapiens; for CC50: 5 log dose, 48 h, read-out: LC50 (the source's name); for IC (TGI): read-out: TGI; for activity at 10 µM: read-out: percent cell growth promotion
[11] = tested on: SF-539; assay: NCI 60 cell panel SRB screen; format: cell-based, human; settings: Homo sapiens, SF-539, 5 log dose; for CC50: 48 h, read-out: LC50 (the source's name)
[12] = tested on: SF-295; assay: NCI 60 cell panel SRB screen; format: cell-based; settings: Homo sapiens; for GI50 / IC (TGI) / CC50: SF-295, 5 log dose; for CC50: 48 h, read-out: LC50 (the source's name); for activity at 10 µM: SF-295, single dose 10 μM, read-out: percent cell growth promotion
[13] = tested on: OVCAR-8; assay: NCI 60 cell panel SRB screen; format: cell-based; settings: Homo sapiens; for GI50 / IC (TGI) / CC50: OVCAR-8, 5 log dose; for CC50: 48 h, read-out: LC50 (the source's name); for activity at 10 µM: OVCAR-8, single dose 10 μM, read-out: percent cell growth promotion
[14] = tested on: UO-31; assay: NCI 60 cell panel SRB screen; format: cell-based; settings: Homo sapiens; for GI50 / IC (TGI) / CC50: UO-31, 5 log dose; for CC50: 48 h, read-out: LC50 (the source's name); for activity at 10 µM: UO-31, single dose 10 μM, read-out: percent cell growth promotion
[15] = tested on: EKVX; assay: NCI 60 cell panel SRB screen; format: cell-based, human; settings: Homo sapiens, 5 log dose; for LC50: 48 h
[16] = tested on: HT29; assay: NCI 60 cell panel SRB screen; format: cell-based; settings: Homo sapiens, HT-29; for GI50 / IC (TGI) / CC50: HT29, 5 log dose; for CC50: 48 h, read-out: LC50 (the source's name); for activity at 10 µM: HT29, single dose 10 μM, read-out: percent cell growth promotion
[17] = tested on: NCI/ADR-RES; assay: NCI 60 cell panel SRB screen; format: cell-based; settings: Homo sapiens; for GI50 / IC (TGI) / CC50: 5 log dose; for CC50: 48 h, read-out: LC50 (the source's name); for activity at 10 µM: single dose 10 μM, read-out: percent cell growth promotion
[18] = tested on: M14; assay: NCI 60 cell panel SRB screen; format: cell-based; settings: Homo sapiens; for GI50: M14; for IC (TGI): M14, read-out: TGI; for activity at 10 µM: M14, read-out: percent cell growth promotion; for CC50: M14, 5 log dose, 48 h, read-out: LC50 (the source's name)

`O=C(Nc1ccc(Cl)cc1)Nc1ccc(Nc2nncc3ccccc23)cc1` [Compound 6b, 1–(4-Chlorophenyl)-3–(4-(phthalazin-1-ylamino)phenyl)urea] was tested, and the GI50 [1] was 3.19 µM, the IC (TGI) [1] was 28.1 µM and the CC50 [1] was > 100 µM. For the same compound, the activity at 10 µM [1] was 42.4%, the GI50 [2] was 3.17 µM and the IC (TGI) [2] was 26.9 µM. The CC50 [2] was > 100 µM, the activity at 10 µM [2] was 33.7% and the GI50 [3] was 5 µM. For the same compound, the IC (TGI) [3] was 15 µM, the CC50 [3] was > 100 µM and the activity at 10 µM [3] was 64.3%. For the same compound, the GI50 [4] was 1.43 µM, the IC (TGI) [4] was 8.32 µM and the activity at 10 µM [4] was 5.46%. For the same compound, the CC50 [4] was 64.1 µM, the GI50 [5] was 0.15 to 8.41 µM and the GI50 [6] was 2.55 µM. The IC (TGI) [6] was 7.26 µM, the CC50 [6] was > 100 µM and the activity at 10 µM [6] was 38.7%. For the same compound, the GI50 [7] was 2.77 µM, the IC (TGI) [7] was 9.58 µM and the CC50 [7] was 34.6 µM. It also gave an activity at 10 µM [7] of 18.6%, a GI50 [8] of 2.7 µM and an IC (TGI) [8] of 7.7 µM. For the same compound, the CC50 [8] was 44.8 µM, the GI50 [9] was 3.79 µM and the IC (TGI) [9] was 18.8 µM. For the same compound, the CC50 [9] was > 100 µM, the activity at 10 µM [9] was 24.5% and the GI50 [10] was 0.82 µM. The CC50 [10] was 53.2 µM, the IC (TGI) [10] was 14.6 µM and the activity at 10 µM [10] was 33.6%. For the same compound, the GI50 [11] was 2.88 µM, the IC (TGI) [11] was 11.5 µM and the CC50 [11] was 36.6 µM. For the same compound, the GI50 [12] was 2.84 µM, the IC (TGI) [12] was 11 µM and the CC50 [12] was 45.8 µM. For the same compound, the activity at 10 µM [12] was 17.8%, the GI50 [13] was 3.12 µM and the IC (TGI) [13] was 12.4 µM. The CC50 [13] was > 100 µM, the activity at 10 µM [13] was 18.2% and the GI50 [14] was 1.9 µM. For the same compound, the IC (TGI) [14] was 15.8 µM, the CC50 [14] was > 100 µM and the activity at 10 µM [14] was 19%. For the same compound, the GI50 [15] was 2.95 µM, the IC (TGI) [15] was 25.3 µM and the LC50 [15] was > 100 µM. The GI50 [16] was 2.65 µM, the IC (TGI) [16] was 14.1 µM and the CC50 [16] was 60 µM. It also gave an activity at 10 µM [16] of 32.4%, a GI50 [17] of 2.79 µM and an IC (TGI) [17] of 26.3 µM. For the same compound, the CC50 [17] was > 100 µM, the activity at 10 µM [17] was 36.2% and the GI50 [18] was 1.52 µM. It also gave an IC (TGI) [18] of 11.5 µM, an activity at 10 µM [18] of 19.3% and a CC50 [18] of 40.7 µM.
In the case of `Cc1nnc(Nc2ccc(NC(=O)Nc3ccc(Cl)cc3)cc2)c2ccccc12` [Compound 6e, 1–(4-Chlorophenyl)-3–(4-(4-methylphthalazin-1-ylamino)phenyl)urea], the GI50 [1] is reported as 2.57 µM, the IC (TGI) [1] is reported as 7.17 µM and the CC50 [1] is reported as 47 µM. The activity at 10 µM [1] was 48.7%, the GI50 [2] was 4.77 µM and the IC (TGI) [2] was 19.5 µM. The CC50 [2] was 66.9 µM, the activity at 10 µM [2] was 57.8% and the GI50 [3] was 3.31 µM. It also gave an IC (TGI) [3] of 1.25 µM, a CC50 [3] of 69.5 µM and an activity at 10 µM [3] of 47.8%. For the same compound, the GI50 [4] was 2.21 µM, the IC (TGI) [4] was 10.9 µM and the activity at 10 µM [4] was 24.9%. For the same compound, the CC50 [4] was 68.7 µM, the GI50 [5] was 0.15 to 8.41 µM and the GI50 [6] was 2.56 µM. The IC (TGI) [6] was 6.6 µM, the CC50 [6] was 42 µM and the activity at 10 µM [6] was 4.62%. For the same compound, the GI50 [7] was 2.22 µM, the IC (TGI) [7] was 5.29 µM and the CC50 [7] was 19.2 µM. It also gave an activity at 10 µM [7] of 28.2%, a GI50 [8] of 2.22 µM and an IC (TGI) [8] of 4.59 µM. The CC50 [8] was 9.5 µM, the GI50 [9] was 3.21 µM and the IC (TGI) [9] was 10.5 µM. The CC50 [9] was 38.5 µM, the activity at 10 µM [9] was 35.4% and the GI50 [10] was 1.75 µM. For the same compound, the CC50 [10] was 6.11 µM, the IC (TGI) [10] was 3.27 µM and the activity at 10 µM [10] was -27.3%. The GI50 [11] was 1.61 µM, the IC (TGI) [11] was 3.32 µM and the CC50 [11] was 6.83 µM. For the same compound, the GI50 [12] was 2.04 µM, the IC (TGI) [12] was 4.21 µM and the CC50 [12] was 8.68 µM. It also gave an activity at 10 µM [12] of 4.8%, a GI50 [13] of 3.35 µM and an IC (TGI) [13] of 9.32 µM. For the same compound, the CC50 [13] was 47.4 µM, the activity at 10 µM [13] was 31.4% and the GI50 [14] was 2.14 µM. It also gave an IC (TGI) [14] of 6.01 µM, a CC50 [14] of 31.8 µM and an activity at 10 µM [14] of 51.2%. The GI50 [15] was 3.47 µM, the IC (TGI) [15] was 17.9 µM and the LC50 [15] was 87.8 µM. The GI50 [16] was 1.78 µM, the IC (TGI) [16] was 3.67 µM and the CC50 [16] was 7.56 µM. It also gave an activity at 10 µM [16] of 2.24%, a GI50 [17] of 3.63 µM and an IC (TGI) [17] of 14.9 µM. For the same compound, the CC50 [17] was > 100 µM, the activity at 10 µM [17] was 45.1% and the GI50 [18] was 1.76 µM. It also gave an IC (TGI) [18] of 3.57 µM, an activity at 10 µM [18] of 37.3% and a CC50 [18] of 7.27 µM.
